Experimental data from patent US7985594B2, “Biradical polarizing agents for dynamic nuclear polarization” (Massachusetts Institute of Technology, priority 2006, dated 2011).

Experiments:
[1] = DNP enhanced 13C-CPMAS NMR experiments (1H polarization enhancement by microwave irradiation); settings: 5 mM TOTAPOL, 2 M 13C-urea in d6-DMSO/D2O/H2O, 90 K, 5 T
Experimental: Solutions for the DNP/NMR experiments—2 M ^13C-urea or 0.15 M U—^13C—^15N-proline—were prepared in d6-DMSO/D2O/H2O (60:34:6 w/w) or d8-glycerol/D2O/H2O (60:32:8 w/w), and doped with 5 mM TOTAPOL (10 mM electron spins). The reduced ^1H concentration was required to optimize the signal enhancements. DNP experiments using TOTAPOL as a polarizing agent were performed on a custom designed DNP/NMR spectrometer and triple-resonance (e^−, ^1H and ^13C/^15N) cryogenic (90 K) MAS probe^31 operating at 5 T (140 GHz EPR and 211 MHz ^1H NMR). The enhanced ^1H polarization developed by the microwave irradiation was detected indirectly via observation of the cross-polarized (CP) ^13C signals. The 140 GHz microwaves were generated by a gyrotron, a vacuum electron device capable of producing high power (>10 W) millimeter waves^26. In certain embodiments, sapphire, rather than zirconia, rotors are preferred for the DNP experiments since they transmit microwaves with ˜30% less attenuation. […]
The ^1H polarization is initially saturated by a series of 90° pulses followed by a delay of 3 T2. […] Note that the error for the enhancement factor is determined primarily by the uncertainty in measuring the intensity of the un-enhanced NMR signal.

[2] = Stability in glycerol/water; assay type: physicochemical; settings: glycerol/water (6:4 w/w) at −10 °C for months
Excerpt: (§1) In contrast, BT2E is insoluble in all of these media.

[3] = Solubility in aqueous media; assay type: physicochemical
Excerpt: as §1

stability in glycerol/water [2]: stable | solubility in 200 mM salt ([3]; 200 mM salt, solvent conditions common for protein samples): soluble in 200 mM salt | solubility in water ([3]; water): soluble in water
Substance: 1-(2,2,6,6-tetramethyl-1-oxy-4-piperidinyl)oxy-3-(2,2,6,6-tetramethyl-1-oxy-4-piperidinyl)amino-propan-2-ol [TOTAPOL]
time constant for growth of the enhanced signal (microwaves on) [1]: ~5.5 s
